Like-named read-outs stand apart in the source and are kept apart here.
Assays:
[1] = molecular target: Human PDE10A1 (Homo sapiens, UniProt Q9Y233); experiment: hPDE10A1 Enzyme Inhibition ([3H]-cAMP scintillation assay); format: biochemical
Method: • hPDE10A1 Enzyme Activity: […] samples of serially diluted Human PDE10A1 enzyme were incubated with 50 μl of [^3H]-cAMP for 20 minutes (at 37° C.). Reactions were carried out in Greiner 96 deep well 1 ml master-block. The enzyme was diluted in 20 mM Tris HCl pH7.4 and [^3H]-cAMP was diluted in 10 mM MgCl2, 40 mM Tris.HCl pH 7.4. The reaction was terminated by denaturing the PDE enzyme (at 70° C.) after which [^3H]-5′-AMP was converted to [^3H]-adenosine by adding 25 μl snake venom nucleotidase and incubating for 10 minutes (at 37° C.). Adenosine, being neutral, was separated from charged cAMP or AMP by the addition of 200 μl Dowex resin. Samples were shaken for 20 minutes then centrifuged for 3 minutes at 2,500 r.p.m. 50 μl of supernatant was removed and added to 200 μl of MicroScint-20 in white plates (Greiner 96-well Optiplate) and shaken for 30 minutes before reading on Perkin Elmer TopCount Scintillation Counter. • hPDE10A1 Enzyme Inhibition: To check inhibition profile 11 μl of serially diluted inhibitor was added to 50 μl of [^3H]-cAMP and 50 μl of diluted Human PDE10A1 and assay was carried out as in the enzyme activity assay. Data was analysed using Prism software (GraphPad Inc).

[2] = test system: rats; conditions: cited from earlier work
[3] = Human PDE10A1, [3H]-cAMP substrate, 20 minutes at 37° C., read-out: hPDE10A1 IC50 Band

Sequence of Human PDE10A1 (Q9Y233 1-779 isoform Q9Y233-1): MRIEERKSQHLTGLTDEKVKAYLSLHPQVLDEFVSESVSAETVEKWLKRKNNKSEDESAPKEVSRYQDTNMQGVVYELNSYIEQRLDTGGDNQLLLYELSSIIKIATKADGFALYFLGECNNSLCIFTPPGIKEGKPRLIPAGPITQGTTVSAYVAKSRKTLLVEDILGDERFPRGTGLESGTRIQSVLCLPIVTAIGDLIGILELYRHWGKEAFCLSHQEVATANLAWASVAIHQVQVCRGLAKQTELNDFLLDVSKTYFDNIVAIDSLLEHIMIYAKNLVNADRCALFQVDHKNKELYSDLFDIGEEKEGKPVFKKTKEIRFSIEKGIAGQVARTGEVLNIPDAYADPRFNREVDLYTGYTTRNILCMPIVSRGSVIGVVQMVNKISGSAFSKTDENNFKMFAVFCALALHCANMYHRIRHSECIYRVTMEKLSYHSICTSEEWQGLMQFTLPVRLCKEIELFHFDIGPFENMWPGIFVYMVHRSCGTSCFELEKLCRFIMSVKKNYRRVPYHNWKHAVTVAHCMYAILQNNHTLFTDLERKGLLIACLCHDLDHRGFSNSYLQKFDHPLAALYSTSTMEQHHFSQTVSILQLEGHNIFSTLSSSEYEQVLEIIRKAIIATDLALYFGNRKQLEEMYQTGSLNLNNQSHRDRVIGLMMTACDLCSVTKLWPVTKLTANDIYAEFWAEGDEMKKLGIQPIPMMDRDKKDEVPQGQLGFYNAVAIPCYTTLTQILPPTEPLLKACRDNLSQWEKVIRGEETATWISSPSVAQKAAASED

CN(/N=C/c1cccc2cnccc12)C(=O)C1CC1c1ccc(C(C)(C)C)cc1 (stereo not shown) [Example 198, (E)-2-(4-tert-butylphenyl)-N′-(isoquinolin-5-ylmethylene)-N-methylcyclopropanecarbohydrazide]
IC50 [1, 3]: < 200 nM

COc1ccc(Cc2nccc3cc(OC)c(OC)cc23)cc1OC [papaverine]
apomorphine induced stereotypies [2]: reduces | haloperidol induced catalepsy [2]: increases | rat brain dopamine levels [2]: reduces

C/C(=N\NC(=O)C1CC1c1ccc(C(C)(C)C)cc1)c1cccc2cnccc12 (stereo not shown) [Example 197, (E)-2-(4-tert-butylphenyl)-N′-(1-(isoquinolin-5-yl)ethylidene)cyclopropanecarbohydrazide]
IC50 [1, 3]: < 1000 nM

O=C(N/N=C/c1cccc2cnccc12)C1CC1c1ccc(-c2ccccc2)cc1 (stereo not shown) [Example 196, (E)-2-(biphenyl-4-yl)-N′-(isoquinolin-5-ylmethylene)cyclopropanecarbohydrazide]
IC50 [1, 3]: < 200 nM

CC(C)(C)c1ccc(C2CC2C(=O)N/N=C/c2cccc3cnccc23)cc1 (stereo not shown) [Example 122, (E)-2-(4-tert-butylphenyl)-N′-(isoquinolin-5-ylmethylene) cyclopropanecarbohydrazide]
IC50 [1]: < 200 nM
